# Tested on: 73 M. tuberculosis strains (41 fully susceptible, 32 MDR)
# Assay: microbe, parasite or virus in culture
# Format: cell-based
structure (smiles),measurement,setting,value
"COc1nc2ccc(Br)cc2cc1[C@@H](c1ccccc1)[C@@](O)(CCN(C)C)c1cccc2ccccc12 [Compound 12, (αS,βR)-6-bromo-α-[2-(dimethylamino)ethyl]-2-methoxy-α-1-naphthalenyl-β-phenyl-3-quinolineethanol]",difference in MIC between fully susceptible and MDR M. tuberculosis strains,,No difference in MIC
same,MIC,"Mycobacterium tuberculosis, 504 h, the majority of the 73 strains, agar plates, 36° C., 3 weeks",0.032 µg/mL
same,concentrations at which no growth was seen,"all the tested strains (73), agar plates, 36° C., 3 weeks",higher than 0.064 mg/L

# From patent US20100168133A1, “USE OF SUBSTITUTED QUINOLINE DERIVATIVES FOR THE TREATMENT OF DRUG RESISTANT MYCOBACTERIAL DISEASES” (priority 2004, published 2010)
